Assay results as given in PubChem BioAssay AID1963831 (Molecular Pharmacology Branch, DTP, NCI, 2024).
pIC50: −log10 of the molar value.

Tested on: 889142-216-R-J1-PDC complex spheroid viability
Test: Anticancer human tumor 889142-216-R-J1-PDC patient-derived bladder carcinoma cell line growth inhibition [POLQ]
Conditions: for pIC50: curve of first compound; for viability, T/C: stronger effect = lower value
Outline: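 Growth inhibition in 3D: complex spheroids (tumor PDC, HUVEC, MSC) treated with POLQ inhibitor combinations; where Cmax unknown, highest tested concentration 10 microM, except SN-38 at 1 microM.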

[1] = second compound 0.0316 µM, first compound 0.0316 µM
[2] = second compound 0.0316 µM, first compound 0.1 µM
[3] = second compound 0.0316 µM, first compound 0.316 µM
[4] = second compound 0.0316 µM, first compound 1 µM
[5] = second compound 0.1 µM, first compound 0.0316 µM
[6] = second compound 0.1 µM, first compound 0.1 µM
[7] = second compound 0.1 µM, first compound 0.316 µM
[8] = second compound 0.1 µM, first compound 1 µM
[9] = second compound 0.316 µM, first compound 0.0316 µM
[10] = second compound 0.316 µM, first compound 0.1 µM
[11] = second compound 0.316 µM, first compound 0.316 µM
[12] = second compound 0.316 µM, first compound 1 µM
[13] = second compound 1 µM, first compound 0.0316 µM
[14] = second compound 1 µM, first compound 0.1 µM
[15] = second compound 1 µM, first compound 0.316 µM
[16] = second compound 1 µM, first compound 1 µM
[17] = second compound 3.16 µM, first compound 0.0316 µM
[18] = second compound 3.16 µM, first compound 0.1 µM
[19] = second compound 3.16 µM, first compound 0.316 µM
[20] = second compound 3.16 µM, first compound 1 µM
[21] = second compound 10 µM, first compound 0.0316 µM
[22] = second compound 10 µM, first compound 0.1 µM
[23] = second compound 10 µM, first compound 0.316 µM
[24] = second compound 10 µM, first compound 1 µM
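Also: spheroids exposed to compounds for seven days.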
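For viability, T/C in this document: 100% = DMSO vehicle control viability.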

CCc1c2c(nc3ccc(O)cc13)-c1cc3c(c(=O)n1C2)COC(=O)[C@]3(O)CC + Nc1ccc(C#CCN(C(=O)Cc2ncc(C(F)(F)F)cc2C(F)(F)F)c2ccc(F)cc2)nn1
pIC50 (second compound 0.0316 µM): 7.71 | pIC50 (second compound 0.1 µM): 7.80 | pIC50 (second compound 0.316 µM): 7.88 | pIC50 (second compound 1 µM): 7.90 | pIC50 (second compound 3.16 µM): 7.65 | pIC50 (second compound 10 µM): 7.93 | viability, T/C (second compound 0.0316 µM, first compound 0.00316 µM): 63.1% | viability, T/C (second compound 0.0316 µM, first compound 0.01 µM): 61.6% | viability, T/C [1]: 41.2% | viability, T/C [2]: 32.9% | viability, T/C [3]: 25.2% | viability, T/C [4]: 9.02% | viability, T/C (second compound 0.1 µM, first compound 0.00316 µM): 61.2% | viability, T/C (second compound 0.1 µM, first compound 0.01 µM): 51.1% | viability, T/C [5]: 44.6% | viability, T/C [6]: 34.8% | viability, T/C [7]: 30.4% | viability, T/C [8]: 8.83% | viability, T/C (second compound 0.316 µM, first compound 0.00316 µM): 66.6% | viability, T/C (second compound 0.316 µM, first compound 0.01 µM): 50% | viability, T/C [9]: 38.6% | viability, T/C [10]: 34% | viability, T/C [11]: 23.9% | viability, T/C [12]: 11.5% | viability, T/C (second compound 1 µM, first compound 0.00316 µM): 70% | viability, T/C (second compound 1 µM, first compound 0.01 µM): 46.6% | viability, T/C [13]: 41.3% | viability, T/C [14]: 30.5% | viability, T/C [15]: 23.4% | viability, T/C [16]: 11.2% | viability, T/C (second compound 3.16 µM, first compound 0.00316 µM): 59.3% | viability, T/C (second compound 3.16 µM, first compound 0.01 µM): 65.6% | viability, T/C [17]: 39.4% | viability, T/C [18]: 35.8% | viability, T/C [19]: 30.9% | viability, T/C [20]: 8.37% | viability, T/C (second compound 10 µM, first compound 0.00316 µM): 57.4% | viability, T/C (second compound 10 µM, first compound 0.01 µM): 52.2% | viability, T/C [21]: 41% | viability, T/C [22]: 31.6% | viability, T/C [23]: 28.3% | viability, T/C [24]: 6.89%

CCc1cc2c(N3CCc4c(cc(Cn5ccnc5)cc4-c4cn(C)nc4C(F)(F)F)C3=O)cc(C)nc2c(OC)n1 + Cc1cccc(N(C)C(=O)C2C(O)CCN2c2nc(C)cc(C(F)(F)F)c2C#N)c1
pIC50 (second compound 0.0316 µM): < 5.00 | pIC50 (second compound 0.1 µM): < 5.00 | pIC50 (second compound 0.316 µM): < 5.00 | pIC50 (second compound 1 µM): < 5.00 | pIC50 (second compound 3.16 µM): < 5.00 | pIC50 (second compound 10 µM): < 5.00 | viability, T/C [1]: 109% | viability, T/C [2]: 132% | viability, T/C [3]: 121% | viability, T/C [4]: 108% | viability, T/C (second compound 0.0316 µM, first compound 3.16 µM): 91.3% | viability, T/C (second compound 0.0316 µM, first compound 10 µM): 80.8% | viability, T/C [5]: 119% | viability, T/C [6]: 98.8% | viability, T/C [7]: 105% | viability, T/C [8]: 114% | viability, T/C (second compound 0.1 µM, first compound 3.16 µM): 109% | viability, T/C (second compound 0.1 µM, first compound 10 µM): 96.8% | viability, T/C [9]: 113% | viability, T/C [10]: 111% | viability, T/C [11]: 137% | viability, T/C [12]: 137% | viability, T/C (second compound 0.316 µM, first compound 3.16 µM): 130% | viability, T/C (second compound 0.316 µM, first compound 10 µM): 83.9% | viability, T/C [13]: 91% | viability, T/C [14]: 106% | viability, T/C [15]: 143% | viability, T/C [16]: 112% | viability, T/C (second compound 1 µM, first compound 3.16 µM): 94.7% | viability, T/C (second compound 1 µM, first compound 10 µM): 84.3% | viability, T/C [17]: 104% | viability, T/C [18]: 121% | viability, T/C [19]: 114% | viability, T/C [20]: 94.9% | viability, T/C (second compound 3.16 µM, first compound 3.16 µM): 112% | viability, T/C (second compound 3.16 µM, first compound 10 µM): 69.9% | viability, T/C [21]: 89.2% | viability, T/C [22]: 88.3% | viability, T/C [23]: 109% | viability, T/C [24]: 144% | viability, T/C (second compound 10 µM, first compound 3.16 µM): 83.7% | viability, T/C (second compound 10 µM, first compound 10 µM): 70.8%
